Patent US8648086B2, “5,6-bicyclic heteroaryl-containing urea compounds as kinase inhibitors” (Ascepion Pharmaceuticals, Inc., priority 2009, dated 2014)
Counter-ions that a name gives are not always drawn.

Assays:
[1] = test system: A549 human non-small cell lung cancer cells; assay: In vivo anti-tumor efficacy, A549 xenograft; settings: Non-small cell lung cancer A549, nu/nu Balb/c mice, n = 2 × 3
Description: (§1) Female (nu/nu) Balb/c athymic mice at 4-6 weeks of age were injected subcutaneously (s.c.) with MDA-MB-231 human breast cancer cells, A549 human non-small cell lung cancer cells, U87-MG human glioblastoma cells, PC-3 human prostate cancer cells, HT-29 human colon cancer, BEL-7404 human hepatocellular carcinoma, or MKN-45 human gastric cancer cells (ATCC, 5×10^6 cells suspended in 100 μl DMEM medium). Treatment was initiated after the tumor mass grown from s.c. implanted tumor cells reached a median volume of 200-400 mm^3. Mice were randomized into groups with three in each group for small-sample efficacy tests such that the median tumor volume is nearly equal among all groups. For large-sample efficacy tests, mice were randomized into groups with thirteen or fourteen in each group. Each group was treated either with compounds (dissolved in 2:1 mixture of PEG400 and 0.01N HCl (v/v)) or without compounds (vehicle only, 2:1 mixture of PEG400 and 0.01N HCl (v/v)) once per day at dose 12.5, 25, 50 or 100 mg/kg by oral gavage. Tumor volumes were assessed at least twice weekly by caliper measurement from the start of treatment. Tumor volume was calculated using the formula ½×L×W^2 (L: length of tumor's long axis, W: length of tumor's short axis). Treatment was applied for at least two weeks or until the tumor volume reaches a size of ˜2500 mm^3 or greater. Mice were humanly sacrificed after the experiment. The efficacy of compounds in reducing tumor growth was assessed by the index Tumor Growth Inhibition (TGI). TGI for a given treatment period was calculated using the group mean tumor volumes according to the formula: TGI=100×(VVehicle—group−VTreatment—group)÷VVehicle—group wherein VVehicle—group represents the mean tumor volume for the group treated with vehicle and VTreatment—group represents the mean tumor volume of the group treated with a compound.

[2] = test system: MKN-45 human gastric cancer cells; assay: In vivo anti-tumor efficacy, MKN-45 xenograft; settings: Gastric cancer MKN-45, nu/nu Balb/c mice, 100 mg/kg oral once per day, n = 2 × 3
Description: as §1

c-Met = target: T1, c-Met (Homo sapiens, UniProt P08581); assay: c-Met cell-based assay (phospho-c-Met ELISA, A549 cells); settings: compound at 100 nM
T1 construct: endogenous in cells; host or cells: A549 cells
T1 sequence (P08581 25-1390): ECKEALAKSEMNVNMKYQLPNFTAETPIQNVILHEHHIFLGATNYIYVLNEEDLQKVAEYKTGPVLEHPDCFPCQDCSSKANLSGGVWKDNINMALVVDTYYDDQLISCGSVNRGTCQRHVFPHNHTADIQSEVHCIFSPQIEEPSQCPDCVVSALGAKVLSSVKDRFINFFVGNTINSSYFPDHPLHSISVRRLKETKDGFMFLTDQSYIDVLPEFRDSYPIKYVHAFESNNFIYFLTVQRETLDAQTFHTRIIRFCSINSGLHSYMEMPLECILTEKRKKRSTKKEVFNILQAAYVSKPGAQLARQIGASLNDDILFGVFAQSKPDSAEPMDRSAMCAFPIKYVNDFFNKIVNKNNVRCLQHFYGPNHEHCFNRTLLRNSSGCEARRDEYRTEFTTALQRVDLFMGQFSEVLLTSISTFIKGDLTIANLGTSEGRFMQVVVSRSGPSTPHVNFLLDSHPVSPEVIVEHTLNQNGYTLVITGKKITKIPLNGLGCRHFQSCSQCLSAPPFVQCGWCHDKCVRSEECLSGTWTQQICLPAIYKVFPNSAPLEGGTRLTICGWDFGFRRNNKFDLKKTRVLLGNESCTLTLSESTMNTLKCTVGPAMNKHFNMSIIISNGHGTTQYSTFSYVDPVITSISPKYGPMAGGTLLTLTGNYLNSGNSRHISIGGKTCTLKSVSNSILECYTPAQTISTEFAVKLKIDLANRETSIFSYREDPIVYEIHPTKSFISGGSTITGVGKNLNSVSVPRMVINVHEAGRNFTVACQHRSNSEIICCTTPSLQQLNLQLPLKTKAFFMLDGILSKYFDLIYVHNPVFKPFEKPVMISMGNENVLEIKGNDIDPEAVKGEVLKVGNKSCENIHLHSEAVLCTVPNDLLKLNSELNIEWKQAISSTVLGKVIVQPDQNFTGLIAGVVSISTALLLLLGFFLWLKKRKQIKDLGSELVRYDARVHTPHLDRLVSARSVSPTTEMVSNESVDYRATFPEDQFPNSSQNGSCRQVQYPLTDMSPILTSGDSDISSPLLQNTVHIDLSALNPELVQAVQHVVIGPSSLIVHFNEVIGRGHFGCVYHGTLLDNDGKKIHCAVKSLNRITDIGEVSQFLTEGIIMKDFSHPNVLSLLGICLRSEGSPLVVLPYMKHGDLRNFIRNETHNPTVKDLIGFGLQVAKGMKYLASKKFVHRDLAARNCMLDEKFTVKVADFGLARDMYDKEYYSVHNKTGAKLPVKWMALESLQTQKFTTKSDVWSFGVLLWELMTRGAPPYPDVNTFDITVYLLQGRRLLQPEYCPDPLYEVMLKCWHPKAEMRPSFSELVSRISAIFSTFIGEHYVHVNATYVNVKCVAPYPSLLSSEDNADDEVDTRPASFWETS
Method in brief: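 Serum-starved A549 cells (NSCLC) pretreated 2 h with compound (0.5 nM to 500 nM), then stimulated 20 min with 20% FBS. Lysates analysed by ELISA for phospho-c-Met and total c-Met with streptavidin-HRP chemiluminescence.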

[3] = test system: PC-3 human prostate cancer cells; assay: In vivo anti-tumor efficacy, PC-3 xenograft; settings: Prostate cancer PC-3, nu/nu Balb/c mice, n = 2 × 3
Description: as §1

VEGFR2 = target: T2, VEGFR2 (Homo sapiens, UniProt P35968); assay: VEGFR2 cell-based assay (phospho-VEGFR2 ELISA, transfected CHO cells); settings: compound at 100 nM, read-out: % VEGFR2 kinase activity remains
T2 construct: expressed in transfected cells; host or cells: CHO cells, pcDNA3.1 plasmid
T2 sequence (P35968 20-1356, species assumed): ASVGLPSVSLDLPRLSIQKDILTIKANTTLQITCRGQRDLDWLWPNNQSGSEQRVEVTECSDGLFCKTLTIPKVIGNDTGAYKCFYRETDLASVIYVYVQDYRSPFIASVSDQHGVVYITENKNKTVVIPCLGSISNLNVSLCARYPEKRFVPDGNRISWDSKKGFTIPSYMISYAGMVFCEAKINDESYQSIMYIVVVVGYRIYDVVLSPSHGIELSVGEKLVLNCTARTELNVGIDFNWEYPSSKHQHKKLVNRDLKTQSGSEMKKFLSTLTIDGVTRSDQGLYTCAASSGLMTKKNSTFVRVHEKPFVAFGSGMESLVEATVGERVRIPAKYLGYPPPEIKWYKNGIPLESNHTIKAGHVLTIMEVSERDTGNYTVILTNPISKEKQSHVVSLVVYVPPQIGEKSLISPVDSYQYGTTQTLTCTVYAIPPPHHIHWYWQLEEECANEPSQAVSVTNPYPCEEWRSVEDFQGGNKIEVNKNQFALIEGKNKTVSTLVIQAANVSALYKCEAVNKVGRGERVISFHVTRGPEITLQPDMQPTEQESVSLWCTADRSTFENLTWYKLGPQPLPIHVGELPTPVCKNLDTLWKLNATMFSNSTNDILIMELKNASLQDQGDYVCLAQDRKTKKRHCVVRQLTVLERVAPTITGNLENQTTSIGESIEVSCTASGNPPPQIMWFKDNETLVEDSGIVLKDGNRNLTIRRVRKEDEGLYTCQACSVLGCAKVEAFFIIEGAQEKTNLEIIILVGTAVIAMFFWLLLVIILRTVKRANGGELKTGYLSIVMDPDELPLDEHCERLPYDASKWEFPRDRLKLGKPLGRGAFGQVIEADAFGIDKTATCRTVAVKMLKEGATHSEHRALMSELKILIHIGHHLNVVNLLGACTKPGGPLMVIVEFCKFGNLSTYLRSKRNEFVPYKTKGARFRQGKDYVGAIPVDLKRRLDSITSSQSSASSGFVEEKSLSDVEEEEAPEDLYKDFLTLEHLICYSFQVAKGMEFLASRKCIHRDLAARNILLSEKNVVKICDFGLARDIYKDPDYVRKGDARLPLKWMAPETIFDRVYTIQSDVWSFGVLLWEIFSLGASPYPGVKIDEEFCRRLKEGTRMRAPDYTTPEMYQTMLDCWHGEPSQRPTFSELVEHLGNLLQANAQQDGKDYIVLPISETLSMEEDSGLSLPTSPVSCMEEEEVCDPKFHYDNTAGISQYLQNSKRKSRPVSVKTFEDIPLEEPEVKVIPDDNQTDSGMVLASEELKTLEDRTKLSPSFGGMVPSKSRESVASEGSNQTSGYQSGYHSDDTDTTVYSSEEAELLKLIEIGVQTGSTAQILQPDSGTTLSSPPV
Method in brief: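 Serum-starved CHO cells transfected with full-length VEGFR2 treated 2 h with compound (0.5–500 nM), then stimulated with 20% FBS. Lysates analyzed by ELISA for phospho- and total VEGFR2 using streptavidin-HRP chemiluminescence.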

[4] = test system: MDA-MB-231 human breast cancer cells; assay: In vivo anti-tumor efficacy, MDA-MB-231 xenograft; settings: Breast cancer MDA-MB-231, nu/nu Balb/c mice, 100 mg/kg oral once per day, n = 2 × 3
Description: as §1, with “experiment.” for “experiment. The efficacy of compounds in reducing tumor growth was assessed by the index Tumor Growth Inhibition (TGI). TGI for a given treatment period was calculated using the group mean tumor volumes according to the formula: TGI=100×(VVehicle—group−VTreatment—group)÷VVehicle—group wherein VVehicle—group represents the mean tumor volume for the group treated with vehicle and VTreatment—group represents the mean tumor volume of the group treated with a compound.”
(§2) The efficacy of compounds in reducing tumor growth was assessed by the index Tumor Growth Inhibition (TGI). TGI for a given treatment period was calculated using the group mean tumor volumes according to the formula: TGI=100×(VVehicle—group−VTreatment—group)÷VVehicle—group wherein VVehicle—group represents the mean tumor volume for the group treated with vehicle and VTreatment—group represents the mean tumor volume of the group treated with a compound.

[5] = test system: U87-MG human glioblastoma cells; assay: In vivo anti-tumor efficacy, U87-MG xenograft; settings: nu/nu Balb/c mice, 100 mg/kg oral once per day, n = 2 × 3
Description: as §1, with “For large-sample efficacy tests, mice were randomized into groups with thirteen or fourteen in each group. Each group was treated either with compounds (dissolved in 2:1 mixture of PEG400 and 0.01N HCl (v/v)) or without compounds (vehicle only, 2:1 mixture of PEG400 and 0.01N HCl (v/v)) once per day at dose 12.5, 25, 50 or 100 mg/kg by oral gavage.” left out, “Treatment was applied for at least two weeks or until the tumor volume reaches a size of ˜2500 mm^3 or greater. Mice were humanly sacrificed after the experiment.” left out

PDGFRβ = target: T3, PDGFRβ (Homo sapiens, UniProt P09619); assay: PDGFRβ cell-based assay (phospho-PDGFRβ ELISA, transfected CHO cells); settings: compound at 100 nM, read-out: % PDGFRβ kinase activity remains
T3 construct: expressed in transfected cells; host or cells: CHO cells, pcDNA3.1 plasmid
T3 sequence (P09619 33-1106, species assumed): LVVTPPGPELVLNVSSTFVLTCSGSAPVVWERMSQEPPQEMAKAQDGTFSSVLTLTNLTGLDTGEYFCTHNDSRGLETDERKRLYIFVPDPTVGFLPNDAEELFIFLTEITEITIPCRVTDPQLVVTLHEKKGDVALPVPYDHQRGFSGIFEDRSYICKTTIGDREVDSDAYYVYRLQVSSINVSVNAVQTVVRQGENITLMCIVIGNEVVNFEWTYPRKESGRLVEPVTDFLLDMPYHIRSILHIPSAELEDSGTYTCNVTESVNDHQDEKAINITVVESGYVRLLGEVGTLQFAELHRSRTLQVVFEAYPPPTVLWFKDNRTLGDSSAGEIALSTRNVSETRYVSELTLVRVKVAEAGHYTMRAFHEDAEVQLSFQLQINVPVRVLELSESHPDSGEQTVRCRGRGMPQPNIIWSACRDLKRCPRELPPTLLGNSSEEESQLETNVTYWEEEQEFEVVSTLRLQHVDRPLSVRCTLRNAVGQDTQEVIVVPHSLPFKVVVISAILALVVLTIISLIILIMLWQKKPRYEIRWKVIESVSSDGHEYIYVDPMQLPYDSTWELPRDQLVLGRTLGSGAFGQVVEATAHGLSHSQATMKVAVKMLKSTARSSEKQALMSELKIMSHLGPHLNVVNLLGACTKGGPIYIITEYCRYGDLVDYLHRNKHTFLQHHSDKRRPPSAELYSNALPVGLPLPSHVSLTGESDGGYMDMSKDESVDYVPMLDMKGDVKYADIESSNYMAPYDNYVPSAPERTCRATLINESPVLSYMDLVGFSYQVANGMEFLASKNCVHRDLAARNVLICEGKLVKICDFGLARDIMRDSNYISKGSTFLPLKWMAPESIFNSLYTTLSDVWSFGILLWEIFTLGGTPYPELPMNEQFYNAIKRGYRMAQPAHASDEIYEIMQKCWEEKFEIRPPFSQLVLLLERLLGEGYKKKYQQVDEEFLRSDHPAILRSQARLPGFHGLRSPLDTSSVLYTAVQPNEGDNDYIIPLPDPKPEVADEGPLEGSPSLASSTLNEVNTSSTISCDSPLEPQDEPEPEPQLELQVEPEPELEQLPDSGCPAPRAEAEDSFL
Description: A standard cell-based assay for PDGFRβ kinase activity can be used to test a compound of this invention and to identify PDGFRβ antagonists.
Specifically, a compound to be tested was first dissolved in DMSO to a concentration of 10 mM and stored at −20° C. The activity of PDGFRβ in cells depends on the phosphorylation level of its intracellular domain induced by the ligand. In order to express PDGFRβ in the cell, full length PDGFRβ sequence was cloned into PC-DNA3.1 vector. The plasmid was then transfected into CHO cells. After 48 hours following the transfection, the expression of PDGFRβ in transfected CHO cells was confirmed by regular western blotting.
To screen the compound of this invention, the ELISA kit (R&D Systems, Minneapolis, Minn., USA) was used. One day before the screening, CHO cells transfected with full length PDGFRβ plasmid were grown in DMEM medium without the presence of serum. On the day of screening, various concentrations of compounds (from 0.5 nM to 500 nM) were added into DMEM medium. Two hours later, 20% of FBS (Fetal Bovine Serum) was added into the medium to stimulate the expression of phosphor-PDGFRβ. Cell lysate from approximately 5×10^5 transfected CHO cells were reacted with anti-phosphor-PDGFRβ or anti-total PDGFRβ antibody in 96 well plates, in the presence of detection antibody, the phosphor-PDGFRβ or total PDGFRβ were detected with Streptavidin-HRP (R&D Systems), followed by chemiluminescent detection.

HT-1299 = assay: In vivo anti-tumor efficacy, HT-1299 lung cancer xenograft; settings: Lung cancer HT-1299, nu/nu Balb/c mice, 100 mg/kg oral once per day, n = 2 × 3
[6] = test system: BEL-7404 human hepatocellular carcinoma; assay: In vivo anti-tumor efficacy, BEL-7404 xenograft; settings: Liver cancer BEL-7404, nu/nu Balb/c mice, 50 mg/kg oral once per day, n = 2 × 3
Description: Female (nu/nu) Balb/c athymic mice at 4-6 weeks of age were injected subcutaneously (s.c.) with MDA-MB-231 human breast cancer cells, A549 human non-small cell lung cancer cells, U87-MG human glioblastoma cells, PC-3 human prostate cancer cells, HT-29 human colon cancer, BEL-7404 human hepatocellular carcinoma, or MKN-45 human gastric cancer cells (ATCC, 5×10^6 cells suspended in 100 μl DMEM medium). Treatment was initiated after the tumor mass grown from s.c. implanted tumor cells reached a median volume of 200-400 mm^3. Mice were randomized into groups with three in each group for small-sample efficacy tests such that the median tumor volume is nearly equal among all groups. […] Tumor volumes were assessed at least twice weekly by caliper measurement from the start of treatment. Tumor volume was calculated using the formula ½×L×W^2 (L: length of tumor's long axis, W: length of tumor's short axis). […]
as §2

CSF-1R = target: T4, CSF-1R (Homo sapiens, UniProt P07333); assay: KINOMEscan competition binding assay, CSF-1R; settings: compound at 100 nM; lower number indicates stronger hit
T4 construct: purchased KINOMEscan service (Ambit Biosciences, San Diego)
Description: (§3) A standard competition binding assay can be used to test the ability of a compound of this invention on competing with both intended and unintended kinases in vitro. To screen a compound against a large number of human kinases, a competition binding assay with an active-site dependent binding technology was performed by KINOMEscan service (Ambit Biosciences, San Diego, Cal., USA). Three components were combined in this assay—DNA-tagged kinase, immobilized ligand, and the test compound. The ability of the test compound to compete with the immobilized ligand was measured by quantitative PCR of the DNA of the DNA tag. A number of the compounds of this invention were screened at the concentration of 100 nM by this binding assay, and the results were reported as “% Ctrl,” and the lower number indicates stronger “hit” in this matrix.

c-Kit = target: T5, c-Kit (Homo sapiens, UniProt P10721); assay: KINOMEscan competition binding assay, c-Kit; settings: compound at 100 nM; lower number indicates stronger hit
T5 construct: purchased KINOMEscan service (Ambit Biosciences, San Diego)
Description: as §3

EPHA2 = target: T6, EPHA2 (Homo sapiens, UniProt P29317); assay: KINOMEscan competition binding assay, EPHA2; settings: compound at 100 nM; lower number indicates stronger hit
T6 construct: purchased KINOMEscan service (Ambit Biosciences, San Diego)
T6 sequence (P29317 24-976): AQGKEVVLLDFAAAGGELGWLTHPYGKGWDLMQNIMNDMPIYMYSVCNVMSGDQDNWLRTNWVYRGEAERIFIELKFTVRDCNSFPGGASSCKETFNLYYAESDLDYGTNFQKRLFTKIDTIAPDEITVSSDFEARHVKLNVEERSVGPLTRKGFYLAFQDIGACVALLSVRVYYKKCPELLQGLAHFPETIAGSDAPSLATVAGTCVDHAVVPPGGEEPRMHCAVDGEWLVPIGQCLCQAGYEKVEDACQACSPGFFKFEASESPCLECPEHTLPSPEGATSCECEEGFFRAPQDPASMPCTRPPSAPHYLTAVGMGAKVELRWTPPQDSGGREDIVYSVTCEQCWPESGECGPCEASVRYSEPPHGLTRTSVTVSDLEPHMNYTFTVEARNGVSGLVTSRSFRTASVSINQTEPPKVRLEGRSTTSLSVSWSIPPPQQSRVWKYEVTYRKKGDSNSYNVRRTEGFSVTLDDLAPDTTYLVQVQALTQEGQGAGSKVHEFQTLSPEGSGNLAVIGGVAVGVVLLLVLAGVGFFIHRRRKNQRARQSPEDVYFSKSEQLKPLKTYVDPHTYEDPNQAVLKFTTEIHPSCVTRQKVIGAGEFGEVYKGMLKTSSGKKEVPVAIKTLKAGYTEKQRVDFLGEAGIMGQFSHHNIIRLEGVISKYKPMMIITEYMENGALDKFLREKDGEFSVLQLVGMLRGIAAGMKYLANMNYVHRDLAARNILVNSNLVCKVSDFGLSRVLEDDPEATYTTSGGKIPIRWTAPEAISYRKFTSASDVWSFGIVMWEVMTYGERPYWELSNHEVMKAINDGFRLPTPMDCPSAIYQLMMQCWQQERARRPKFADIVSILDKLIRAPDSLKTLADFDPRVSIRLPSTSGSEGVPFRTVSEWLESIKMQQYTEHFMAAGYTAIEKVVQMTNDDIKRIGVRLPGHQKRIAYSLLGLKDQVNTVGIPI
Description: as §3

remaining activity at 0.1 µM (VEGFR2) [%] | remaining activity at 0.1 µM (PDGFRβ) [%] | CSF-1R % Ctrl (CSF-1R) [% Ctrl] | c-Kit % Ctrl (c-Kit) [% Ctrl] | EPHA2 % Ctrl (EPHA2) [% Ctrl] | SMILES | Tumor Growth Inhibition (TGI) ([1]; 100 mg/kg oral once per day) | Tumor Growth Inhibition (TGI) [2] | % c-Met kinase activity remains (c-Met) | Tumor Growth Inhibition (TGI) ([3]; 100 mg/kg oral once per day) | Tumor Growth Inhibition (TGI) [4] | Tumor Growth Inhibition (TGI) [5] | Tumor Growth Inhibition (TGI) (HT-1299) | Tumor Growth Inhibition (TGI) [6] | Tumor Growth Inhibition (TGI) ([1]; 50 mg/kg oral once per day) | Tumor Growth Inhibition (TGI) ([3]; 50 mg/kg oral once per day)
< 70 | – | – | – | – | COc1ccc(Cl)cc1NC(=O)Nc1cccc2c1ccn2Cc1ccnc2[nH]ccc12.Cl [Example 2a/2b, 1-(2-Methoxyl-5-chlorophenyl)-3-[1-(1H-pyrrolo[2,3-b]pyridin-4-ylmethyl)-1H-indol-4-yl]urea hydrochloride] | A (the TGI is greater or equal to 50%) | A (the TGI is greater or equal to 50%) | A (the percentage of kinase activity remains is below 70%) | A (the TGI is greater or equal to 50%) | A (the TGI is greater or equal to 50%) | A (the TGI is greater or equal to 50%) | – | – | – | –
< 70 | ≥ 70 | – | – | – | COc1ccc(Cl)cc1NC(=O)Nc1cccc2c1ccn2Cc1c[nH]c2ncccc12.Cl [Example 3, 1-(2-Methoxyl-5-chlorophenyl)-3-[1-(1H-pyrrolo[2,3-b]pyridin-3-ylmethyl)-1H-indol-4-yl]urea hydrochloride] | A (the TGI is greater or equal to 50%) | – | A (the percentage of kinase activity remains is below 70%) | – | A (the TGI is greater or equal to 50%) | – | A (the TGI is greater or equal to 50%) | – | – | –
< 70 | – | – | – | – | O=C(Nc1cccc(Cl)c1)Nc1cccc2c1ccn2Cc1ccnc2[nH]ccc12 [Example 38, 1-(3-Chlorophenyl)-3-[1-(1H-pyrrolo[2,3-b]pyridin-4-ylmethyl)-1H-indol-4-yl]urea hydrochloride] | – | – | A (the percentage of kinase activity remains is below 70%) | – | A (the TGI is greater or equal to 50%) | – | – | A (the TGI is greater or equal to 50%) | – | –
< 70 | – | 0.8 | 0.35 | 6 | Cc1cccc(NC(=O)Nc2cccc3c2ccn3Cc2ccnc3[nH]ccc23)c1.Cl [Example 44, 1-(3-Methylphenyl)-3-[1-(1H-pyrrolo[2,3-b]pyridin-4-ylmethyl)-1H-indol-4-yl]urea hydrochloride] | – | A (the TGI is greater or equal to 50%) | A (the percentage of kinase activity remains is below 70%) | – | A (the TGI is greater or equal to 50%) | – | – | – | A (the TGI is greater or equal to 50%) | A (the TGI is greater or equal to 50%)
